{"source": "PubChem BioAssay AID1963432", "about": "(Molecular Pharmacology Branch, DTP, NCI, 2024)", "system": "SYO-1 complex spheroid growth, percent test/control", "assay": "Anticancer human tumor SYO-1 cell line growth inhibition [Asc];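 as to all read-outs here: compound exposure lasted 7 days after spheroids grew 3 days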;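 as to viability, T/C: 100% = DMSO vehicle control viability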", "details": "for pIC50: curve of first compound; for viability, T/C: stronger effect = lower value", "summary_of_the_method": "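Tumor cells were grown as complex spheroids with human endothelial cells (HUVEC) and human mesenchymal stem cells as stroma. Agents were tested alone and in combination, in half-log steps down from the clinical Cmax, or from 10 microM where Cmax was unknown.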", "note": "pIC50: −log10 of the molar value."}
{"smiles": "Cc1nc(N2CCC3(CC2)COC(C)C3N)c(CO)nc1Sc1ccnc(N)c1Cl", "note": "(configuration not stated) + Cc1c(S(C)(=O)=O)c(-c2cc(F)cc(N3CCN(c4ccc(NS(=O)(=O)c5ccc(NC(CCN6CCC(C(=O)OCCCP(=O)(O)O)CC6)CSc6ccccc6)c(S(=O)(=O)C(F)(F)F)c5)cc4)CC3)c2)c(-c2ccc(Cl)cc2)n1C(C)C", "values": [{"measurement": "pIC50", "setting": "second compound 0.0316 µM", "value": "< 5.52"}, {"measurement": "pIC50", "setting": "second compound 0.1 µM", "value": "< 5.52"}, {"measurement": "pIC50", "setting": "second compound 0.316 µM", "value": "< 5.52"}, {"measurement": "pIC50", "setting": "second compound 1 µM", "value": "< 5.52"}, {"measurement": "pIC50", "setting": "second compound 3.16 µM", "value": "< 5.52"}, {"measurement": "pIC50", "setting": "second compound 10 µM", "value": "< 5.52"}, {"measurement": "viability, T/C", "setting": "second compound 0.0316 µM, first compound 0.00949 µM", "value": 93.6, "unit": "%"}, {"measurement": "viability, T/C", "setting": "second compound 0.0316 µM, first compound 0.03 µM", "value": 99.6, "unit": "%"}, {"measurement": "viability, T/C", "setting": "second compound 0.0316 µM, first compound 0.0949 µM", "value": 91.7, "unit": "%"}, {"measurement": "viability, T/C", "setting": "second compound 0.0316 µM, first compound 0.3 µM", "value": 98.8, "unit": "%"}, {"measurement": "viability, T/C", "setting": "second compound 0.0316 µM, first compound 0.949 µM", "value": 110, "unit": "%"}, {"measurement": "viability, T/C", "setting": "second compound 0.0316 µM, first compound 3 µM", "value": 102, "unit": "%"}, {"measurement": "viability, T/C", "setting": "second compound 0.1 µM, first compound 0.00949 µM", "value": 96, "unit": "%"}, {"measurement": "viability, T/C", "setting": "second compound 0.1 µM, first compound 0.03 µM", "value": 94.8, "unit": "%"}, {"measurement": "viability, T/C", "setting": "second compound 0.1 µM, first compound 0.0949 µM", "value": 97.3, "unit": "%"}, {"measurement": "viability, T/C", "setting": "second compound 0.1 µM, first compound 0.3 µM", "value": 103, "unit": "%"}, {"measurement": "viability, T/C", "setting": "second compound 0.1 µM, first compound 0.949 µM", "value": 100, "unit": "%"}, {"measurement": "viability, T/C", "setting": "second compound 0.1 µM, first compound 3 µM", "value": 93.7, "unit": "%"}, {"measurement": "viability, T/C", "setting": "second compound 0.316 µM, first compound 0.00949 µM", "value": 91.3, "unit": "%"}, {"measurement": "viability, T/C", "setting": "second compound 0.316 µM, first compound 0.03 µM", "value": 88.2, "unit": "%"}, {"measurement": "viability, T/C", "setting": "second compound 0.316 µM, first compound 0.0949 µM", "value": 98.9, "unit": "%"}, {"measurement": "viability, T/C", "setting": "second compound 0.316 µM, first compound 0.3 µM", "value": 97.5, "unit": "%"}, {"measurement": "viability, T/C", "setting": "second compound 0.316 µM, first compound 0.949 µM", "value": 103, "unit": "%"}, {"measurement": "viability, T/C", "setting": "second compound 0.316 µM, first compound 3 µM", "value": 92.3, "unit": "%"}, {"measurement": "viability, T/C", "setting": "second compound 1 µM, first compound 0.00949 µM", "value": 92.2, "unit": "%"}, {"measurement": "viability, T/C", "setting": "second compound 1 µM, first compound 0.03 µM", "value": 95.7, "unit": "%"}, {"measurement": "viability, T/C", "setting": "second compound 1 µM, first compound 0.0949 µM", "value": 93.2, "unit": "%"}, {"measurement": "viability, T/C", "setting": "second compound 1 µM, first compound 0.3 µM", "value": 99.9, "unit": "%"}, {"measurement": "viability, T/C", "setting": "second compound 1 µM, first compound 0.949 µM", "value": 98.7, "unit": "%"}, {"measurement": "viability, T/C", "setting": "second compound 1 µM, first compound 3 µM", "value": 91, "unit": "%"}, {"measurement": "viability, T/C", "setting": "second compound 3.16 µM, first compound 0.00949 µM", "value": 95.3, "unit": "%"}, {"measurement": "viability, T/C", "setting": "second compound 3.16 µM, first compound 0.03 µM", "value": 91.2, "unit": "%"}, {"measurement": "viability, T/C", "setting": "second compound 3.16 µM, first compound 0.0949 µM", "value": 89, "unit": "%"}, {"measurement": "viability, T/C", "setting": "second compound 3.16 µM, first compound 0.3 µM", "value": 91.4, "unit": "%"}, {"measurement": "viability, T/C", "setting": "second compound 3.16 µM, first compound 0.949 µM", "value": 95.5, "unit": "%"}, {"measurement": "viability, T/C", "setting": "second compound 3.16 µM, first compound 3 µM", "value": 89.3, "unit": "%"}, {"measurement": "viability, T/C", "setting": "second compound 10 µM, first compound 0.00949 µM", "value": 84, "unit": "%"}, {"measurement": "viability, T/C", "setting": "second compound 10 µM, first compound 0.03 µM", "value": 82.8, "unit": "%"}, {"measurement": "viability, T/C", "setting": "second compound 10 µM, first compound 0.0949 µM", "value": 94.8, "unit": "%"}, {"measurement": "viability, T/C", "setting": "second compound 10 µM, first compound 0.3 µM", "value": 87.2, "unit": "%"}, {"measurement": "viability, T/C", "setting": "second compound 10 µM, first compound 0.949 µM", "value": 95.8, "unit": "%"}, {"measurement": "viability, T/C", "setting": "second compound 10 µM, first compound 3 µM", "value": 78.5, "unit": "%"}]}
